In the oligonucleotide strings, read from the 5' end, every base follows the letter of its sugar. An asterisk marks phosphorothioate; unmarked linkages are phosphodiester. Other units and linkages are bracketed, terminal groups are in braces. A string of capitals states the bases alone. d = 2'-deoxy (DNA)

One series relates to human preadipocyte. Put plainly: Effect of antisense compound on adipocyte proliferation and differentiation (Adipo Red). It is filed as cell-based. The following applies: 300 nM; human preadipocyte. The procedure: First, human preadipocyte (Human Preadipocytes-sq POIETICS #PT-5020, Sanko Junyaku Co., Ltd.) was suspended in growth medium (#PT-8200, Sanko Junyaku Co., Ltd.), and after adding the suspension to a 96 well culture plate at 1×10^4 cells/well/100 μL, the cells were cultured overnight at 37° C. in the presence of 5% CO2.
The preadipocyte was cultured overnight, and after washing the preadipocyte twice with serum-free DMEM, Opti-MEM was added at 80 μL/well.
Gene transfection reagent Lipofectin was diluted with Opti-MEM to 20 μg/mL, and the dilution was allowed to stand at room temperature for 30 minutes. Next, the antisense oligodeoxynucleotide synthesized as described above was heated at 90° C. for 3 minutes, and after quenching on ice, diluted with Opti-MEM to a concentration 10 times higher than the final concentration. Equal amounts of the Lipofectin in Opti-MEM and the antisense oligodeoxynucleotide in Opti-MEM were mixed, and the mixture was incubated at room temperature for 15 minutes and added to 96 well plate at 20 μL/well. After incubating at 37° C. for 4 hours in the presence of 5% CO2, it was used for examination as described below.
The differentiation medium was prepared by using growth medium (#PT-8200, Sanko Junyaku Co., Ltd.) and supplement kit (PGM Single Quots, #PT-9500, Sanko Junyaku Co., Ltd.) according to the instruction of the kit. Next, the culture supernatant containing the Lipofectin was removed from the 96 well plate prepared in the above (2), and the plate was washed twice with serum-free DMEM, and the differentiation medium prepared as described above was added at 100 μL/well. The plate was then incubated at 37° C. for 5 days to 15 days in the presence of 5% CO2.
Accumulation of the neutral fat in the adipocyte was determined by fluorometry using Adipo Red stain.
After taking the 96 well plate out of the CO2 incubator, the plate was allowed to stand until it reached room temperature. The plate was centrifuged at 300 g (1200 rpm) for 10 minutes at room temperature to remove the medium. Next, after gently washing with PBS (SIGMA) at 200 μL/well, PBS was added to the well at 200 μL/well. Next, Adipo Red Assay Reagent (Adipo Red, Cat. #PT-7009, Lot.3F0497, A Cambrex Company) was added at 5 μL/well, and the plate was allowed to stand at room temperature for at least 10 minutes to thereby stain the neutral fat accumulated in the adipocyte. The fat accumulation was determined by measuring fluorescence intensity in a fluorometer at an excitation wavelength of 485 nm and an emission wavelength of 535 nm.
The suppression rate of the adipocyte differentiation was calculated by converting the fluorescence intensity of the well transfected with the antisense compound in relation to the fluorescence intensity of the well without transfection with the antisense compound which was assumed as 100%. The result was rated “+” when the suppression rate was at least 25%, “++” when the suppression rate was at least 50%, and “+++” when the suppression rate was at least 75%.

For another series, the system named is human meltrin α RNA. As to the kind of experiment: Suppression of human meltrin α expression by antisense compound in RD cell (real time PCR). The class given is cell-based. The following applies: 50 nM; RD cell. The gist of the method:
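RD cells transfected with heat-denatured antisense oligodeoxynucleotide plus Lipofectin in Opti-MEM for 4 h at 37° C, then cultured 18 h. Meltrin α RNA quantified by TaqMan RT-PCR against plasmid standard curve, GAPDH-corrected; suppression vs untreated cells, rated +/++/+++ for ≥30/50/70%.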
Background: In qPCR the cycle at which signal appears reflects the starting amount.

With “2 (dC*dT*dG*dG*dT*dT*dA*dA*dT*dG*dG*dT*dT*dC*dA*dC*dA*dT*dC*dT) [compound 2]”, in the series on human preadipocyte, the “Supression of adipose differentiation 300 nM” value is “++ (“++” when the suppression rate was at least 50%)”. Also, the “Supression of expression, 50 nM” value in the series on human meltrin α RNA was “++ (“++” when the suppression rate was at least 50%)”.
